Kd, ΔTm and IC50 data for twelve compounds are collected here from US20250188110A1, “SPECIFIC SMALL MOLECULE INHIBITORS THAT BLOCK KMT9 METHYLTRANSFERASE ACTIVITY AND FUNCTION” (ALBERT-LUDWIGS-UNIVERSITÄT FREIBURG, priority 2021, published 2025).

Molecules are shown by their SMILES. A value given as a limit tells only on which side of the number the result lay.

Broadly, the IC50 is the concentration that inhibits the measured activity by half. A lower IC50 goes with greater potency.

The target of experiment [1] is T1, KMT9 (Homo sapiens, UniProt Q9Y5N5).
T1 sequence (Q9Y5N5 1-214): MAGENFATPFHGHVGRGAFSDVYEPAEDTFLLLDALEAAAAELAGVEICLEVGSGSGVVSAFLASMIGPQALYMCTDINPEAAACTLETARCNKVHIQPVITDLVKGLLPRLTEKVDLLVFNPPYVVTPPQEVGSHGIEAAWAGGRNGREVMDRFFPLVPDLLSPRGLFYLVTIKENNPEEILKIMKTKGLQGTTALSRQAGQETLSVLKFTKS
T1 sequence (Q9UI30 1-120 isoform Q9UI30-2 partner): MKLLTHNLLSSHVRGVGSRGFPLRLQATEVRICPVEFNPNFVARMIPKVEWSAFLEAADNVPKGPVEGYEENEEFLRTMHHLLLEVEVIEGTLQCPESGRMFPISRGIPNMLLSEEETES
Put plainly: Microscale thermophoresis (MST) KMT9 binding. The following applies: microscale thermophoresis, His-tag labelled KMT9 (20 nM); read-out: MST. The procedure:
To determine the binding affinity of the compounds according to the present invention and KMT9, microscale thermophoresis (MST) analysis was performed with a NanoTemper Monolith NT.115 instrument (NanoTemper Technologies GmbH). KMT9 was labelled with a RED-Tris-NTA labelling kit (NanoTemper Technologies GmbH) based on the manufacturer's instructions. Buffer including 25 mM HEPES (pH 7.5), 100 mM NaCl, 1 mM DTT and 0.05% Tween was used for the reaction buffer. Varying concentrations of the tested compounds of formula (I) as indicated in Table 1 were titrated against His-tag labelled KMT9 proteins (20 nM). Samples were loaded into standard Capillaries (NanoTemper Technologies GmbH) and MST measurements were performed using 40% MST power and 100% LED power. For each set of binding experiments, MST measurement was carried out with Binding Affinity module in MO.Control program under Nano-RED Excitation. Datasets were processed with the MO.Affinity Analysis software (NanoTemper Technologies GmbH).
For the results of the microscale thermophoresis (MST) assay shown as “MST” in Table 1, “A” represents a Kd of equal to or less than 10 nM (Kd≤10 nM); “B” represents a Kd of greater than 10 nM and equal to or less than 100 nM (10 nM<Kd<100 nM); “C” represents a Kd of greater than 100 nM and equal to or less than 1000 nM (100 nM<Kd ≤ 1000 nM); “D” represents a Kd of greater than 1000 nM (1000 nM<Kd).

Experiment [2] deals with T1, KMT9. Put plainly: KMT9 thermal shift assay (SyproOrange). The class given is binding. The following applies: ΔTm; 500 µM compound, 2 μM KMT9, 5X SO; read-out: Thermal shift. The procedure: The assay was carried out in 96-well Hard-Shell PCR plates (Bio-Rad Laboratories Inc.). Assay buffer consisted of 50 mM BTP, 1 mM MgCl2 and 1 mM DTT at a pH of 8.5 (adjusted using 1 M HCl and 1 M NaOH). 20X inhibitor stock (in DMSO), 2X enzyme stock and 4X SyproOrange (SO) stock (both in assay buffer) were prepared. 1 μL of 20X compound, 4 μL of assay buffer, 10 μL of 2X KMT9 and 5 μL of 4X SO were pipetted. For the no-compound control, 20X inhibitor stock was replaced by DMSO. The final volume was 20 μL. The plate was spun down at 700 rpm for 1 min using a Hettich UNIVERSAL 320 centrifuge and incubated at 25° C., shaking at 600 rpm. After incubation, the plate was spun down for 1 min at 700 rpm and measurement was conducted using a CFX96 Touch Real-Time PCR Detection System (Bio-Rad Laboratories Inc.). The plate was equilibrated at 20° C. for 4 min and then heated stepwise at a rate of 1° C. per 15 s until 95° C. After every step, fluorescence was measured in FRET mode. Calculation of melting points was conducted by a Boltzman sigmoidal model using GraphPad Prism 7.0.
For the results of the thermal shift assay shown as “Thermal shift” in Table 1, “++++” represents a ΔTm of greater 20 K, “+++” represents a ΔTm of greater than 15 K and less than or equal to 20 K (15 K<ΔTm≤20 K); “++” represents a ΔTm of greater than 10 K and less than or equal to 15 K (10 K<ΔTm ≤ 15 K); “+” represents a ΔTm of equal to or less than 10 K (ΔTm≤10 K).

For experiment [3], the target named is T1, KMT9. Put plainly: KMT9 methyltransferase inhibition assay, 3H-SAM scintillation (entries 1-154). It is filed as biochemical. The following applies: entries 1-154: 3H-SAM assay, 25 nM KMT9, 5 μM ETF1. Here is the method:
The assay was carried out in 0.5 mL Eppendorf tubes in duplicates. Assay buffer consisted of 50 mM BTP, 1 mM MgCl2, 1 mM DTT and 0.01% Triton-X^100 at a pH of 8.5 (adjusted using 1 M HCl and 1 M NaOH). 20X inhibitor stock (in DMSO), 2X enzyme stock and 4X substrate mix (both in assay buffer) were prepared. The substrate mix consisted of Tritium-labelled S-adenosylmethionine (3H-SAM), S-adenosylmethionine (SAM) and eukaryotic peptide chain release factor subunit1 (Homo sapiens, residues 140-275)(ETF1). Final assay concentrations were set to 25 nM KMT9, 0.3 μM 3H-SAM, 0.7 µM SAM and 5 μM ETF1. […] 5 μL of 4x substrate mix was added to initiate the reaction. The final reaction volume was 20 μL. For the positive control, the compound of formula (I) was replaced by DMSO; for the negative control, the compound of formula (I) was replaced by DMSO and KMT9 was replaced by assay buffer. The reaction mix was incubated in an Eppendorf thermomixer comfort at 30° C. for 2 h, shaking at 300 rpm. The reaction was quenched using 5 μL 50% trichloroacetic acid (TCA) and incubated at 25° C. for 5 minutes. 22 μL of the mixture was transferred into 96-well MultiScreen@HTS FB filter plates (Merck KGaA, Darmstadt, Germany) and washed four times with 10% TCA and two times with 100% ethanol. The plate was dried overnight, the filters were transferred into individual 6 mL Pony Vials (Perkin Elmer Inc, Waltham, MA, USA) and incubated in 3 mL of Ultima Gold scintillation cocktail (Perkin Elmer Inc, Waltham, MA, USA) for 30 minutes. The scintillation signal was measured for 3x 1 min using TriCarb 2910 TR (Perkin Elmer) scintillation counter in 3H CPM mode (LL: 0, UL: 18.6). Inhibition was calculated using the following formula: […]
With xc: signal of compound, Xpos: mean signal of positive control, Xneg: mean signal of negative control. Data fitting was carried out by GraphPad 7.0 using nonlinear fit ([Inhibitor]vs. response-variable slope (four parameters)).
For the results of the methyltransferase inhibition assay shown as “Inhibition” in Table 1, “I” represents an IC50 less than 0.1 μM, “II” represents an IC50 equal or higher than 0.1 μM and less than 1 μM, “III” represents an IC50 equal or higher than 1 µM and less than 10 µM and “IV” represents an IC50 equal or higher than 10 µM

Turning to `Nc1ncnc2c1c(Br)cn2[C@@H]1C[C@H](CNCCCNCCc2ccc(F)cc2)[C@@H](O)[C@H]1O` [319 (220), (1R,2S,3R,5R)-3-(4-amino-5-bromo-7H-pyrrolo[2,3-d]pyrimidin-7-yl)-5-(((3-((4-fluorophenethyl)amino)propyl)amino)methyl) cyclopentane-1,2-diol], the Kd in experiment [1] was in the range of 0.01 to 0.1 µM. Further, the ΔTm at 500 µM in experiment [2] lay within 15 to 20 °C. In addition, the IC50 in experiment [3] is 0.1 to 1 µM.
For `CNc1ncnc2c1ccn2[C@@H]1C[C@H](C(=O)NCC2CCNCC2)[C@@H](O)[C@H]1O` [346 (250), (1S,2R,3S,4R)-2,3-dihydroxy-4-(4-(methylamino)-7H-pyrrolo[2,3-d]pyrimidin-7-yl)-N-(piperidin-4-ylmethyl) cyclopentane-1-carboxamide], the Kd in experiment [1] is above 1 µM. The ΔTm at 500 µM in experiment [2] was at most 10 °C. In experiment [3], this compound showed an IC50 above 10 µM.
In the same order, the values of `Nc1ncnc2c1c(-c1nccs1)cn2[C@@H]1C[C@H](CN(CCCNCCc2ccc(F)cc2)c2cn[nH]c2)[C@@H](O)[C@H]1O` [Compound 599, (1R,2S,3R,5R)-3-[4-Amino-5-(1,3-thiazol-2-yl)pyrrolo[2,3-d]pyrimidin-7-yl]-5-{[(3-{[2-(4-fluorophenyl)ethyl]amino}propyl)(1H-pyrazol-4-yl)amino]methyl}cyclopentane-1,2-diol] are at most 0.01 µM, 15 to 20 °C and below 0.1 µM.
For `CNc1ncnc2c1ccn2[C@@H]1C[C@H](CCCCNCCc2ccccc2)[C@@H](O)[C@H]1O` [423 (294), (1R,2S,3R,5S)-3-(4-(methylamino)-7H-pyrrolo[2,3-d]pyrimidin-7-yl)-5-(4-(phenethylamino)butyl) cyclopentane-1,2-diol], the Kd in experiment [1] was above 1 µM. Also, in experiment [2], the ΔTm at 500 µM is at most 10 °C. For the same compound, in experiment [3], the IC50 is above 10 µM.
In the same order, the values of `CNc1ncnc2c1ccn2[C@@H]1C[C@H](CN(CCCNCCc2ccc3ccccc3c2)CC(F)(F)F)[C@@H](O)[C@H]1O` [377 (281), (1R,2S,3R,5R)-3-(4-(methylamino)-7H-pyrrolo[2,3-d]pyrimidin-7-yl)-5-(((3-((2-(naphthalen-2-yl)ethyl)amino)propyl)(2,2,2-trifluoroethyl)amino)methyl) cyclopentane-1,2-diol] are above 1 µM, at most 10 °C and above 10 µM.
`Nc1ncnc2c1c(-c1ccn(Cc3ccccc3)n1)cn2[C@@H]1C[C@H](C2CCNCC2)[C@@H](O)[C@H]1O` [Compound 489, (1R,2S,3R,5R)-3-(4-amino-5-(1-benzyl-1H-pyrazol-3-yl)-7H-pyrrolo[2,3-d]pyrimidin-7-yl)-5-(piperidin-4-yl)cyclopentane-1,2-diol]: the Kd in experiment [1] was 0.01 to 0.1 µM. Also, in experiment [2], the ΔTm at 500 µM fell in the range of 15 to 20 °C. This compound also had an IC50 in experiment [3] of 1 to 10 µM.
In the same order, the values of `CNc1ncnc2c1c(C)cn2[C@@H]1O[C@H](CNCCCNCCc2ccccc2)[C@@H](O)[C@H]1O` [311 (210), (2R,3R,45,5R)-2-(5-methyl-4-(methylamino)-7//-pyrrolo[2,3-a]pyrimidin-7-yl)-5-(((3-(phenethylamino)propyl)amino)methyl)tetrahydrofuran-3,4-diol] are above 1 µM, at most 10 °C and above 10 µM.
In the same order, the values of `C=Cc1cn([C@@H]2C[C@H](CN3CC(CNCCc4ccc(F)cc4)C3)[C@@H](O)[C@H]2O)c2ncnc(N)c12` [485 (359), (1R,2S,3R,5R)-3-(4-Amino-5-vinyl-7H-pyrrolo[2,3-d]pyrimidin-7-yl)-5-((3-(((4-fluorophenethyl)amino)methyl)azetidin-1-yl)methyl) cyclopentane-1,2-diol] are 0.01 to 0.1 µM, 15 to 20 °C and 1 to 10 µM.
Regarding `Nc1ncnc2c1c(Br)cn2[C@@H]1C[C@H](CNCCCNCc2ccc(F)cc2)[C@@H](O)[C@H]1O` [344 (248), (1R,2s,3R,5R)-3-(4-amino-5-bromo-7H-pyrrolo[2,3-d]pyrimidin-7-yl)-5-(((3-((4-fluorobenzyl)amino)propyl)amino)methyl) cyclopentane-1,2-diol], in experiment [1], the Kd lay in the range of 0.1 to 1 µM. Moreover, in experiment [2], the ΔTm at 500 µM fell in the range of 15 to 20 °C. In experiment [3], the IC50 was in the range of 0.1 to 1 µM.
In the case of `CNc1ncnc2c1ccn2[C@@H]1C[C@H](CN(CCCNCCc2cccc(Oc3ccccc3)c2)C(C)C)[C@@H](O)[C@H]1O` [362 (266), (1S,2R,3R,5R)-3-((isopropyl(3-((3-phenoxyphenethyl)amino)propyl)amino)methyl)-5-(4-(methylamino)-7H-pyrrolo[2,3-d]pyrimidin-7-yl) cyclopentane-1,2-diol], the Kd in experiment [1] was in the range of 0.1 to 1 µM. In experiment [2], the ΔTm at 500 µM was in the range of 10 to 15 °C. Further, the IC50 in experiment [3] was in the range of 1 to 10 µM.
Consider `CNc1ncnc2c1c(Br)cn2[C@@H]1C[C@H](CNCCCNCCc2cccc(Oc3ccccc3)c2)[C@@H](O)[C@H]1O` [458 (330), (1R,2S,3R,5R)-3-(5-Bromo-4-(methylamino)-7H-pyrrolo[2,3-d]pyrimidin-7-yl)-5-(((3-((3-phenoxyphenethyl)amino)propyl)amino)methyl) cyclopentane-1,2-diol], for which the Kd in experiment [1] is above 1 µM. The ΔTm at 500 µM in experiment [2] was at most 10 °C. In addition, the IC50 in experiment [3] is above 10 µM.
In the same order, the values of `C=Cc1cn([C@@H]2C[C@H](CNCCCNCCc3ccccc3)[C@@H](O)[C@H]2O)c2ncnc(N)c12` [464 (338), (1R,2S,3R,5R)-3-(4-amino-5-vinyl-7H-pyrrolo[2,3-d]pyrimidin-7-yl)-5-(((3-(phenethylamino)propyl)amino)methyl) cyclopentane-1,2-diol] are 0.01 to 0.1 µM, 10 to 15 °C and 1 to 10 µM.
